Results on 25 compounds are retold here after ChEMBL document CHEMBL2407058, “Design, Synthesis, and Antiplasmodial Activity of Hybrid Compounds Based on (2R,3S)-N-Benzoyl-3-phenylisoserine” (ACS Med Chem Lett, 2013).

For data set [1], the system named is Plasmodium falciparum. Description: Antiplasmodial activity against erythrocytic stage of chloroquine-resistant Plasmodium falciparum IndoChina W2 infected in human A positive RBC after 48 hrs by [3H]hypoxanthine incorporation assay. The format is functional, organism-based.
The next data set has as its system L6. The data set is described as follows: Cytotoxicity against rat L6 cells after 70 hrs by Alamar Blue assay. The class given is cell-based. Conditions: L6, 70 h.
Data set [2] relates to Plasmodium falciparum. The data set is described as follows: Antiplasmodial activity against erythrocytic stage of multidrug-resistant Plasmodium falciparum Thailand K1 infected in human A positive RBC after 48 hrs by [3H]hypoxanthine incorporation assay. The format is functional, organism-based.
A short description of data set [3]: Selectivity index, ratio of IC50 for rat L6 cells to IC50 for erythrocytic stage of chloroquine-resistant Plasmodium falciparum IndoChina W2. Conditions: read-out: Ratio IC50. The format is toxicity, cell-based.
Data set [4] has as its system Plasmodium falciparum. The data set is described as follows: Ratio of dihydroartemisinin IC50 to compound IC50 for erythrocytic stage of chloroquine-resistant Plasmodium falciparum IndoChina W2. The format is functional.

Some results are limits rather than exact numbers.

For the compound `O=C(N[C@@H](c1ccccc1)[C@@H](O)C(=O)O)c1ccccc1`, the figures for the IC50 with Plasmodium falciparum [1], in the data set with L6 and with Plasmodium falciparum [2] were over 10000 nM, over 100000 nM and over 10000 nM, respectively.
Regarding `OCc1cccc(Nc2ccnc3cc(Cl)ccc23)c1`, the IC50 in the data set on Plasmodium falciparum [1] turned out to be 300 nM; with L6 it was 21100 nM; in the data set with Plasmodium falciparum [2], 300 nM. In addition, the selectivity ratio in data set [3] came to 70.4.
In the case of `O=C(N[C@@H](c1ccccc1)[C@@H](O)C(=O)NCCNc1ccnc2cc(Cl)ccc12)c1ccccc1`, the IC50 in the data set with Plasmodium falciparum [1] amounted to 560 nM; in the data set on L6, 15100 nM; in the data set with Plasmodium falciparum [2] it was 360 nM. For the same compound, the selectivity ratio in data set [3] stood at 27.
As for `O=C(N[C@@H](c1ccccc1)[C@@H](O)C(=O)NCCCNc1ccnc2cc(Cl)ccc12)c1ccccc1`, the values for the IC50 in the data set on Plasmodium falciparum [1], in the data set on L6 and in the data set on Plasmodium falciparum [2] were 480 nM, 28300 nM and 1000 nM, respectively. Besides, the selectivity ratio in data set [3] stood at 59.
With `[N-]=[N+]=NCCCNc1ccnc2cc(Cl)ccc12`, the IC50 in the data set on Plasmodium falciparum [1] was 170 nM; in the data set with L6, 9480 nM; in the data set with Plasmodium falciparum [2], 330 nM. In addition, the selectivity ratio in data set [3] was 55.8.
The like results for `[N-]=[N+]=NCc1cccc(Nc2ccnc3cc(Cl)ccc23)c1` were, in that order, 550 nM, 76600 nM, 1110 nM and 139.
Take `[N-]=[N+]=NCc1ccccc1Nc1ccnc2cc(Cl)ccc12`: the midpoint of inhibition with Plasmodium falciparum [1], the IC50, lay at 220 nM.
On to `O=C(N[C@@H](c1ccccc1)[C@@H](O)C(=O)NCc1cn(CCNc2ccnc3cc(Cl)ccc23)nn1)c1ccccc1`, for which the IC50 in the data set with Plasmodium falciparum [1] worked out at 2710 nM; in the data set on L6 it was 85600 nM; in the data set on Plasmodium falciparum [2] it was 1110 nM. The selectivity ratio in data set [3] came out at 31.6.
With `O=C(N[C@@H](c1ccccc1)[C@@H](O)C(=O)NCc1cn(CCCNc2ccnc3cc(Cl)ccc23)nn1)c1ccccc1`, the IC50 was 1690 nM in the data set with Plasmodium falciparum [1], 88200 nM in the data set on L6 and 390 nM with Plasmodium falciparum [2]. The selectivity ratio in data set [3] was 52.2.
As to `O=C(N[C@@H](c1ccccc1)[C@@H](O)C(=O)NCc1cn(Cc2cccc(Nc3ccnc4cc(Cl)ccc34)c2)nn1)c1ccccc1`, the results for the IC50 in the data set with Plasmodium falciparum [1], in the data set on L6 and in the data set on Plasmodium falciparum [2] were 280 nM, 67900 nM and 2440 nM, respectively. In addition, the selectivity ratio in data set [3] is 242.
As to `O=C(N[C@@H](c1ccccc1)[C@@H](O)C(=O)NCc1cn(Cc2ccccc2Nc2ccnc3cc(Cl)ccc23)nn1)c1ccccc1`, the IC50 amounted to 1050 nM in the data set on Plasmodium falciparum [1], 30100 nM in the data set on L6 and 3240 nM in the data set with Plasmodium falciparum [2]. The selectivity ratio in data set [3] stood at 28.6.
`CC(=O)O[C@@H](C(=O)O)[C@@H](NC(=O)c1ccccc1)c1ccccc1`: the IC50 in the data set on Plasmodium falciparum [1] is over 10000 nM; in the data set with L6, over 100000 nM; in the data set with Plasmodium falciparum [2] it was over 10000 nM.
As for `C[C@H]1[C@H](OC(=O)[C@H](O)[C@@H](NC(=O)c2ccccc2)c2ccccc2)O[C@@H]2O[C@@]3(C)CC[C@H]4[C@H](C)CC[C@@H]1[C@@]24OO3`, the values for the IC50 in the data set on Plasmodium falciparum [1], in the data set with L6 and with Plasmodium falciparum [2] were 5 nM, 1030 nM and 0.7 nM, respectively. Further, in data set [3], the selectivity ratio stood at 206. In addition, the “Ratio IC50” value in the data set on Plasmodium falciparum [4] was 3.
For `CC(=O)O[C@@H](C(=O)O[C@@H]1O[C@@H]2O[C@@]3(C)CC[C@H]4[C@H](C)CC[C@@H]([C@H]1C)[C@@]24OO3)[C@@H](NC(=O)c1ccccc1)c1ccccc1`, the IC50 in the data set with Plasmodium falciparum [1] turned out to be 5 nM; in the data set on L6, 830 nM; in the data set on Plasmodium falciparum [2] it was 0.5 nM. Besides, in data set [3], the selectivity ratio was found to be 166. Moreover, in the data set on Plasmodium falciparum [4], the “Ratio IC50” value was 3.
Compound `OCc1ccccc1Nc1ccnc2cc(Cl)ccc12` showed an IC50 with Plasmodium falciparum [1] of 40 nM.
In the case of `O=C(N[C@@H](c1ccccc1)[C@@H](O)C(=O)OCCNc1ccnc2cc(Cl)ccc12)c1ccccc1`, the midpoint of inhibition in the data set on Plasmodium falciparum [1], the IC50, lay at 390 nM.
As for `CC(=O)O[C@@H](C(=O)OCCNc1ccnc2cc(Cl)ccc12)[C@@H](NC(=O)c1ccccc1)c1ccccc1`, the IC50 in the data set on Plasmodium falciparum [1] came out at 220 nM; in the data set on L6, 25200 nM; with Plasmodium falciparum [2], 250 nM. The selectivity ratio in data set [3] turned out to be 114.
`O=C(N[C@@H](c1ccccc1)[C@@H](O)C(=O)OCCCNc1ccnc2cc(Cl)ccc12)c1ccccc1`: half-maximal inhibition in the data set with Plasmodium falciparum [1] (IC50) was put at 130 nM.
With `CC(=O)O[C@@H](C(=O)OCCCNc1ccnc2cc(Cl)ccc12)[C@@H](NC(=O)c1ccccc1)c1ccccc1`, the figures for the IC50 in the data set with Plasmodium falciparum [1], in the data set with L6 and in the data set on Plasmodium falciparum [2] were 160 nM, 24200 nM and 220 nM, respectively. In addition, in data set [3], the selectivity ratio was 151.
The compound `OCCNc1ccnc2cc(Cl)ccc12` had an IC50 in the data set with Plasmodium falciparum [1] of 550 nM.
Compound `OCCCNc1ccnc2cc(Cl)ccc12` showed an IC50 with Plasmodium falciparum [1] of 410 nM.
Compound `[N-]=[N+]=NCCNc1ccnc2cc(Cl)ccc12` showed an IC50 in the data set with Plasmodium falciparum [1] of 290 nM.
On to `C[C@H]1[C@@H](O)O[C@@H]2O[C@@]3(C)CC[C@H]4[C@H](C)CC[C@@H]1[C@@]24OO3` (mixture of isomers) [ARTENIMOL], for which the IC50 came to 3 nM in the data set on Plasmodium falciparum [1], 730 nM in the data set with L6 and 1.8 nM in the data set on Plasmodium falciparum [2]. For the same compound, in data set [3], the selectivity ratio is 243.
Consider `C[C@@H]1CC[C@H]2[C@@H](C)C(=O)O[C@@H]3O[C@@]4(C)CC[C@@H]1[C@]32OO4` [ARTEMISININ], for which the half-maximal inhibitory concentration (IC50) with Plasmodium falciparum [1] came out at 15 nM; in the data set with Plasmodium falciparum [2], 3.2 nM.
As for `COc1cc([C@@H]2c3cc4c(cc3[C@H](O)[C@H]3COC(=O)[C@H]23)OCO4)cc(OC)c1OC` [PODOFILOX], 20 nM corresponded to half-maximal inhibition in the data set on L6 (IC50).
